Experimental findings from article doi:10.1101/2021.10.07.463234v2 (biorxiv, 2021) are described below.

Molecules are shown by their SMILES.

The target of the assay is SARS-CoV-2 Mac1 (Severe acute respiratory syndrome coronavirus 2, UniProt P0DTD1). As to the kind of experiment: biochemical. To be noted: for inhibition at 100 µM: read-out: %inhibition; for %inhibition: 100 µM, inhibitor.

Broadly, the inhibition is the share of the control response that was lost under treatment. Usually %inhibition stands for the share of the control response that was lost under treatment. Read a low %inhibition as a response near the control.

Turning to `CO[C@H]1C(=O)[C@]2(C)[C@@H](OC)C[C@H]3OC[C@@]3(OC(C)=O)[C@H]2[C@H](OC(=O)c2ccccc2)[C@]2(O)C[C@H](OC(=O)[C@H](O)[C@@H](NC(=O)OC(C)(C)C)c3ccccc3)C(C)=C1C2(C)C` [Cabazitaxel], the inhibition at 100 µM was determined as 25.1%.

Turning to `COc1cc2nccc(Oc3ccc(NC(=O)C4(C(=O)Nc5ccc(F)cc5)CC4)cc3)c2cc1OC` [Cabozantinib (XL184, BMS-907351)], the “%inhibition” value is 25.14%.

For `COc1cc2nccc(Oc3ccc(NC(=O)C4(C(=O)Nc5ccc(F)cc5)CC4)cc3)c2cc1OC` [Cabozantinib malate (XL184)], the “%inhibition” value is on record as 0%.

For the compound `C=C1CC[C@H](O)C/C1=C/C=C1\CCC[C@]2(C)[C@@H]([C@H](C)CCCC(C)(C)O)CC[C@@H]12` [Calcifediol], the inhibition at 100 µM worked out at 0%.

For the compound `C=C1/C(=C\C=C2/CCC[C@]3(C)[C@@H]([C@H](C)/C=C/[C@@H](O)C4CC4)CC[C@@H]23)C[C@@H](O)C[C@@H]1O` [Calcipotriene], the inhibition at 100 µM was found to be 0%.

On to `CC(C)(CO)[C@@H](O)C(=O)NCCC(=O)O` [Calcium D-Panthotenate], for which the inhibition at 100 µM was 14.2%.

In the case of `O=C(O)C(O)[C@H](O)[C@@H](O)[C@H](O)[C@H](O)CO` (stereo partly shown) [Calcium Gluceptate], the inhibition at 100 µM was found to be 0%.

As to `Nc1nc(=O)c2c([nH]1)NCC(CNc1ccc(C(=O)N[C@@H](CCC(=O)O)C(=O)O)cc1)N2C=O` (stereo partly shown) [Calcium folinate], the inhibition at 100 µM stood at 0%.

Consider `O=C(O)[C@H](O)[C@@H](O)[C@H](O)[C@H](O)CO` [Calcium gluconate], for which the inhibition at 100 µM turned out to be 0%.

For the compound `CN(C)C(=O)COC(=O)Cc1ccc(OC(=O)c2ccc(NC(=N)N)cc2)cc1` [Camostat Mesilate], the inhibition at 100 µM stood at 42.9%.

`Cc1ccc([C@@H]2O[C@H](CO)[C@@H](O)[C@H](O)[C@H]2O)cc1Cc1ccc(-c2ccc(F)cc2)s1` [Canagliflozin]: the inhibition at 100 µM was 0%.

`CCOc1nc2cccc(C(=O)OC(C)OC(=O)OC3CCCCC3)c2n1Cc1ccc(-c2ccccc2-c2nn[nH]n2)cc1` (stereo not shown) [Candesartan Cilexetil]: the inhibition at 100 µM stood at 0%.

For `CCOc1nc2cccc(C(=O)O)c2n1Cc1ccc(-c2ccccc2-c2nnn[nH]2)cc1` [Candesartan], the inhibition at 100 µM stood at 0%.

In the case of `CSCCNc1nc(SCCC(F)(F)F)nc2c1ncn2[C@@H]1O[C@H](COP(=O)(O)OP(=O)(O)C(Cl)(Cl)P(=O)(O)O)[C@@H](O)[C@H]1O` [Cangrelor Tetrasodium], the inhibition at 100 µM turned out to be 0%.

On to `CCCCCOC(=O)Nc1nc(=O)n([C@@H]2O[C@H](C)[C@@H](O)[C@H]2O)cc1F` [Capecitabine], for which the inhibition at 100 µM is 6.29%.

Regarding `COc1cc(CNC(=O)CCCC/C=C/C(C)C)ccc1O` [Capsaicin(Vanilloid)], the “%inhibition” value was found to be 5.806%.

With `C[C@H](CS)C(=O)N1CCC[C@H]1C(=O)O` [Captopril], the inhibition at 100 µM came to 0%.

Regarding `C[N+](C)(C)CCOC(N)=O` [Carbachol], the inhibition at 100 µM turned out to be 3.56%.

For the compound `COC(=O)N/N=C/c1c[n+]([O-])c2ccccc2[n+]1[O-]` [Carbadox], the inhibition at 100 µM is 6.86%.

`NC(=O)N1c2ccccc2C=Cc2ccccc21` [Carbamazepine]: the inhibition at 100 µM was 0%.

For `CC(=O)Oc1ccccc1C(=O)O` [Carbasalate Calcium], the “%inhibition” value stood at 5.528%.

Turning to `CN1c2cc(O)c(N=NC(N)=O)cc2CC1S(=O)(=O)O` (stereo not shown) [Carbazochrome sodium sulfonate (AC-17)], the inhibition at 100 µM turned out to be 15.7%.

As to `CN1CC(O)C2=C/C(=N/NC(N)=O)C(=O)C=C21` (stereo not shown) [Carbazochrome], the inhibition at 100 µM came to 10.9%.

On to `CC1(C)S[C@@H]2[C@H](NC(=O)C(C(=O)O)c3ccccc3)C(=O)N2[C@H]1C(=O)O` (stereo partly shown) [Carbenicillin disodium], for which the inhibition at 100 µM came out at 2.9%.

Consider `CC1(C)[C@@H](OC(=O)CCC(=O)O)CC[C@]2(C)[C@H]3C(=O)C=C4[C@@H]5C[C@@](C)(C(=O)O)CC[C@]5(C)CC[C@@]4(C)[C@]3(C)CC[C@@H]12` [Carbenoxolone Sodium], for which the inhibition at 100 µM is 4.8%.
